The subject of series [1] is IPdR oxidase. In words: Conversion of IPdR to IUdR by cell extracts (rat tissues). It counts as in vitro ADME. How it is done: (§1) Rat hepatic tissue was washed with ice-cold 1.15% KCl and blotted dry. The tissue was then homogenized with a tissue homogenizer, in a volume of 1.15% KCl that was 3 times the tissue weight, to form a 25% (w/v) homogenate. The homogenate was then centrifuged at 10,000 g for 10 minutes at 4° C. The resulting supernatant was filtered through Miracloth (similar to cheese cloth) then dialyzed overnight against 50 mM Tris-HCl buffer pH 7.5 and stored at -80° C. before use. Rat hepatocytes were obtained by a perfusion technique then the cells were extracted with 10 mM phosphate buffer, pH 7.5, containing 1M KCl and dialyzed for 4 hours against 50 mM Tris-HCl buffer pH 7.5.
(§2) For the standard assay condition, the reaction mixture contained 50 mM Tris-HCl, pH 7.5, 1 mM EDTA, 180 μM of IPdR (or its analogs) and approximately 0.01 mg protein of 10,000 g supernatant of tissue homogenate in a final volume of 500 μl and the incubation was at 37° C. for 10 minutes unless specified otherwise. 300 μl of reaction mixture was removed at the end of incubation and mixed with 630 μl acetonitrile then agitated. The precipitated protein were removed by centrifugation and the supernatant was lyophilized to dryness. The samples were reconstituted to the original aliquot volume with the HPLC mobile phase buffer and analyzed on a Alltech RP-18 column. IPdR, IUdR and IU were detected at a UV absorption wavelength of 230 nm, and IPdR was also detected at a UV absorption wavelength of 335 nm. The mobile phase was 10% acetonitrile/90%mM ammonium acetate, pH 6.8 and the flow rate was 1 ml/minute. Standard curves of IPdR and IUdR were established from the integration value of known concentrations.
(§3) Differential fractionation centrifugation was used in an attempt to localize this IPdR conversion enzyme activity in the liver homogenate. The enzyme activity assay was performed on each fraction. […] Further purification was achieved by use of DEAE cellulose column chromatography, blue Sepharose column chromatography and glycerol gradient centrifugation in this order. This IPdR oxidase activity was purified 380 fold starting from the crude extracts of rat liver. The partially purified enzyme catalyzed IUdR synthesis at a rate of 3.8 μmoles per minute per milligram of protein at 37° C. under these conditions. The apparent molecular weight of this enzyme in both rats and humans as determined by centrifugation on a 20 to 40% glycerol gradient is approximately 280,000 dalton. Neither cofactor nor divalent cations requirement has been found for the rat liver enzyme or the human liver enzyme.
Tissue specificity of the conversion of IPdR

Series [2] deals with IPdR oxidase. Kind of series: IUdR synthesis by partially purified IPdR oxidase. The following applies: 37° C., rat liver enzyme purified 380 fold. It counts as biochemical. How it is done:
as §3

A short description of series [3]: Michaelis constant / Vmax of 2-pyrimidinone deoxyribose analogs with the liver enzyme. The following applies: rat, liver aldehyde oxidase. It counts as biochemical, rat. The procedure: as §1, §2
(§4) Several 2-pyrimidinone deoxyribose analogs were examined for the conversion to their deoxyuridine counterparts. […] Nevertheless the relative Vmax for IPdR in the reaction at pH 7.5 and pH 9.5 is the same. […] The synthetic substrates for aldehyde oxidase appear to be better than its natural substrates, N^1 -methylnicotinamide and acetaldehyde, as judged by the potency of inhibition of N^1 -methylnicotinamide and acetaldehyde to the IPdR oxidation reaction (Table IV). The rate of reactivity of the liver enzyme with different IPdR analogs follows the order EPdR, IP, IPdR, 5-bromo-2-pyrimidinone deoxyribose (BPdR) and 5-methyl-2-pyrimidinone deoxyribose (MPdR) or 5-ethyl-2-pyrimidinone deoxyribose (EtPdR) (Table V). Electronegative substituents in the 5-position seemed to increase the substrate activity in this oxidation reaction.

For another series, the system named is aldehyde oxidase. Described as above. The following applies: pH 7.5 versus pH 9.5. The class given is biochemical, rat. How it is done: as §1, §2, §4
Another series has as its system rat liver homogenate. Kind of series: HPLC time course of conversion of IPdR by rat liver homogenate. The class given is in vitro ADME. How it is done:
FIGS. 1A-1C depict HPLC profiles of the conversion of IPdR to IUdR by liver homogenate. IPdR was incubated with rat liver homogenate. For control reactions, a portion of the supernatant was boiled for 5 minutes to inactivate all enzymes before use. The assay condition was as described hereinafter except 60 μl of the 100,000 g×60 minute supernatant (equivalent to approximately 0.5 mg protein/ml) was used in a reaction volume of 1500 μl . […]
For the standard assay condition, the reaction mixture contained 50 mM Tris-HCl, pH 7.5, 1 mM EDTA, 180 μM of IPdR (or its analogs) and approximately 0.01 mg protein of 10,000 g supernatant of tissue homogenate in a final volume of 500 μl and the incubation was at 37° C. for 10 minutes unless specified otherwise. […] The samples were reconstituted to the original aliquot volume with the HPLC mobile phase buffer and analyzed on a Alltech RP-18 column. IPdR, IUdR and IU were detected at a UV absorption wavelength of 230 nm, and IPdR was also detected at a UV absorption wavelength of 335 nm. […]
To study the conversion of IPdR to IUdR by liver enzyme the metabolites of IPdR were analyzed after incubation with a supernatant of rat liver homogenate using a reverse phase HPLC technique. IPdR and IUdR could be detected at an absorption wavelength of 230 nm but only IPdR could be detected at 335 nm. […]

The subject of a further series is HSV-2. The settings on record: Lewandowski et al. 1989; cited from earlier work.

Some results are limits rather than exact numbers.

In general, Km refers to the substrate concentration at which the rate is half of its maximum. For the compound `O=c1ncc(I)cn1[C@H]1C[C@H](O)[C@@H](CO)O1` [IPdR, 1-(2-deoxy-β-D-ribofuranosyl)-5-(iodo)-2-pyrimidinone], in the series with IPdR oxidase [1] (compared with whole liver extract), the “IPdR oxidase specific activity of hepatocyte extracts” value is on record as “very similar specific activity”. Besides, the “Specific activity of the conversion of IPdR to IUdR” value with IPdR oxidase [1] (hepatocyte (rat), 3 samples) is reported as 5-11 n mole/mg protein/min; in the series on IPdR oxidase [1] (intestine (rat), 3 samples, conversion not detected), less than 0.02 n mole/mg protein/min; with IPdR oxidase [1] (kidney (rat), 3 samples), 0.8-1.6 n mole/mg protein/min; in the series on IPdR oxidase [1] (liver (rat), 5 samples), 5-15 n mole/mg protein/min; with IPdR oxidase [1] (lung (rat), 3 samples, conversion not detected), less than 0.02 n mole/mg protein/min; in the series on IPdR oxidase [1] (spleen (rat), 3 samples), 0.2-0.5 n mole/mg protein/min. For the same compound, the “IPdR oxidase activity in extracts of kidney and spleen” value in the series on IPdR oxidase [1] (rat kidney and spleen extracts, compared with liver) was “much less active”. Moreover, in the series on IPdR oxidase [1] (rat lung or intestine extracts), the “IPdR oxidase activity in lung or intestine extracts” value was “cannot be detected”. For the same compound, in the series with IPdR oxidase [2], the “rate of IUdR synthesis by partially purified enzyme” value is given as 3.8 μmoles per minute per milligram of protein. Moreover, the Km was 150 µM in series [3] (pH 7.5) and 87 µM in series [3] (pH 9.5). Further, the “relative Vmax” value in the series with aldehyde oxidase is “the same”. In addition, the “conversion of IPdR to IUdR over time” value with rat liver homogenate (37° C., 0, 15, 30 minutes (FIG. 1)) is given as “time dependent conversion of IPdR to IUdR”. In the series with rat liver homogenate (IUdR), the “product produced from IPdR” value was “IUdR appeared to be the only product”. Also, the “activity against HSV-2 in cell culture” value in the series on HSV-2 is “potent activity”.
